Results published in patent EP0975634B1, “FUNGICIDAL TRIFLUOROPHENYL-TRIAZOLOPYRIMIDINES” (BASF AKTIENGESELLSCHAFT, priority 1997, dated 1998).
≈ marks a conversion by molar mass, not a printed value. Where two headings read alike, the source gives them in different places.

Legend:
Altemaria solani = assay: organism not typed; type: cell-based; conditions: for MIC: read-out: MIC (Minimum Inhibitory Concentration) ALTESO
Botrytis cinerea = assay: microbe, parasite or virus in culture; type: cell-based; conditions: for MIC: Botrytis cinerea, read-out: MIC (Minimum Inhibitory Concentration) BOTRCI
Leptosphaeria nodorum = assay: Minimum Inhibitory Concentration, serial dilution test; type: cell-based; conditions: for MIC: Parastagonospora nodorum, read-out: MIC (Minimum Inhibitory Concentration) LEPTNO
Phytophthora infestans = assay: microbe, parasite or virus in culture; type: cell-based; conditions: for MIC (Minimum Inhibitory Concentration) PHYTIN: total inhibition of mycelial growth, V8 nutrient solution, 6-12 days incubation at 18-25°C, visual inspection; for MIC: Phytophthora infestans, read-out: MIC (Minimum Inhibitory Concentration) PHYTIN
[1] = test system: Magnaporthe grisea f. sp. Oryzae; assay: microbe, parasite or virus in culture; type: cell-based; conditions: for MIC (Minimum Inhibitory Concentration) PYRIOR: total inhibition of mycelial growth, V8 nutrient solution, 6-12 days incubation at 18-25°C, visual inspection; for MIC: Pyricularia oryzae, read-out: MIC (Minimum Inhibitory Concentration) PYRIOR
Pyrenophora teres = assay: Minimum Inhibitory Concentration, serial dilution test; type: cell-based; conditions: for MIC: Pyrenophora teres, read-out: MIC (Minimum Inhibitory Concentration) PYRNTE
Rhizoctonia solani = assay: as above; type: cell-based; conditions: for MIC: Rhizoctonia solani, read-out: MIC (Minimum Inhibitory Concentration) RHISZO
Uncinula necator = assay: Control of powdery mildew on grapes, prophylactic greenhouse test; type: in vivo; conditions: grape cultivar Müller-Thurgau, application 3 days before infection, evaluation 21 days after infection; for activity at 3.13 ppm / activity at 6.25 ppm / activity at 12.5 ppm / activity at 25 ppm: Erysiphe necator, read-out: % activity (ABBOTT formula)
[2] = total inhibition of mycelial growth, V8 nutrient solution, 6-12 days incubation at 18-25°C, visual inspection

| SMILES | MIC (Minimum Inhibitory Concentration) ALTESO (Altemaria solani) | MIC (Minimum Inhibitory Concentration) BOTRCI (Botrytis cinerea) | MIC (Minimum Inhibitory Concentration) PHYTIN (Phytophthora infestans) | MIC (Minimum Inhibitory Concentration) PYRIOR [1] | MIC (Altemaria solani) | MIC (Botrytis cinerea) | MIC (Leptosphaeria nodorum; [2]) | MIC [1] | activity at 3.13 ppm (Uncinula necator; Concentration 3.13 ppm) | activity at 6.25 ppm (Uncinula necator; Concentration 6.25 ppm) | activity at 12.5 ppm (Uncinula necator; Concentration 12.50 ppm) | activity at 25 ppm (Uncinula necator; Concentration 25.00 ppm) | MIC (Pyrenophora teres; [2]) | other results |
| --- | --- | --- | --- | --- | --- | --- | --- | --- | --- | --- | --- | --- | --- | --- |
| CC(Nc1c(-c2c(F)cc(F)cc2F)c(Cl)nc2ncnn12)C(F)(F)F (stereo not shown) [Example 28, 5-chloro-7-[N-2-(1,1,1-trifluoropropyl)-amino]-6-(2,4,6-trifluorophenyl)-[1,2,4]triazolo[1,5-a]pyrimidine] | 780 µg/mL (≈ 1.97 mM) | 3130 µg/mL (≈ 7.91 mM) | 110000 µg/mL (≈ 278 mM) | 780 µg/mL (≈ 1.97 mM) |  |  |  |  |  |  |  |  |  | MIC (Minimum Inhibitory Concentration) LEPTNO (Leptosphaeria nodorum; [2]): 3130 µg/mL (≈ 7.91 mM); MIC (Minimum Inhibitory Concentration) PYRNTE (Pyrenophora teres; [2]): 6250 µg/mL (≈ 15.8 mM); MIC (Minimum Inhibitory Concentration) RHISZO (Rhizoctonia solani; [2]): 3130 µg/mL (≈ 7.91 mM); % activity (ABBOTT formula) (Uncinula necator; Concentration 3.13 ppm): 97%; % activity (ABBOTT formula) (Uncinula necator; Concentration 6.25 ppm): 100%; % activity (ABBOTT formula) (Uncinula necator; Concentration 12.50 ppm): 100%; % activity (ABBOTT formula) (Uncinula necator; Concentration 25.00 ppm): 100% |
| CC(C)CN(CC(F)(F)F)c1c(-c2c(F)cc(F)cc2F)c(Cl)nc2ncnn12 [Example 26, 5-chloro-7-(N-2-methylpropyl-N-2,2,2-trifluoroethylamino)-6-(2,4,6-trifluorophenyl)-[1,2,4]triazolo[1,5-a]pyrimidine] |  |  |  |  | 200 µg/mL (≈ 0.457 mM) | 200 µg/mL (≈ 0.457 mM) | 390 µg/mL (≈ 0.891 mM) | 40 µg/mL (≈ 0.0914 mM) | 0% | 14% | 22% | 27% |  | MIC (Rhizoctonia solani; [2]): 3130 µg/mL (≈ 7.15 mM) |
| Fc1cc(F)c(-c2c(Cl)nc3ncnn3c2NC2CC3CCC2C3)c(F)c1 (stereo not shown) [Example 11, 5-chloro-7-(N-norborn-2-ylamino)-6-(2,4,6-trifluorophenyl)-[1,2,4]triazolo[1,5-a]pyrimidine] |  |  |  |  |  |  |  |  | 64% | 93% | 100% | 100% |  |  |
| CC1CCN(c2c(-c3c(F)cc(F)cc3F)c(Cl)nc3ncnn23)CC1 [Example 2, 5-chloro-7-(4-methylpiperidin-1-yl)-6-(2,4,6-trifluorophenyl)-[1,2,4]triazolo[1,5-a]pyrimidine] |  |  |  |  | 40 µg/mL (≈ 0.105 mM) | 100 µg/mL (≈ 0.262 mM) | 6250 µg/mL (≈ 16.4 mM) | 40 µg/mL (≈ 0.105 mM) | 100% | 100% | 100% | 100% | 200 µg/mL (≈ 0.524 mM) | MIC (Phytophthora infestans): 100000 µg/mL (≈ 262 mM) |
| CN(CC(F)(F)F)c1c(-c2c(F)cc(F)cc2F)c(Cl)nc2ncnn12 [Example 27, 5-chloro-7-(N-methyl-N-2,2.2-trifluoroethylamino)-6-(2,4,6-trifluorophenyl)-[1,2,4]triazolo[1,5-a]-pyrimidine] | 780 µg/mL (≈ 1.97 mM) | 3130 µg/mL (≈ 7.91 mM) | 110000 µg/mL (≈ 278 mM) | 100 µg/mL (≈ 0.253 mM) |  |  |  |  |  |  |  |  |  | MIC (Minimum Inhibitory Concentration) LEPTNO (Leptosphaeria nodorum; [2]): 50000 µg/mL (≈ 126 mM); MIC (Minimum Inhibitory Concentration) PYRNTE (Pyrenophora teres; [2]): 12500 µg/mL (≈ 31.6 mM); MIC (Minimum Inhibitory Concentration) RHISZO (Rhizoctonia solani; [2]): 1560 µg/mL (≈ 3.94 mM); % activity (ABBOTT formula) (Uncinula necator; Concentration 3.13 ppm): 0%; % activity (ABBOTT formula) (Uncinula necator; Concentration 6.25 ppm): 0%; % activity (ABBOTT formula) (Uncinula necator; Concentration 12.50 ppm): 11%; % activity (ABBOTT formula) (Uncinula necator; Concentration 25.00 ppm): 17% |
| CC1CCN(c2c(-c3c(F)cccc3Cl)c(Cl)nc3ncnn23)CC1 [standard^1, 5-chloro-7-(4-methylpiperidin-1-yl)-6-(2-chloro-6-fluorophenyl)-[1,2,4]triazolo[1,5-a]pyrimidine, reference compound] |  |  |  |  |  |  |  |  | 31% | 42% | 44% | 73% |  |  |
| Fc1cc(F)c(-c2c(Cl)nc3ncnn3c2NCC(F)(F)F)c(F)c1 [Example 12, 5-chloro-7-(N-2,2,2-trifluoroethylamino)-6-(2,4,6-trifluorophenyl)-[1,2,4]triazolo[1,5-a]pyrimidine] |  |  |  |  | 1560 µg/mL (≈ 4.09 mM) | 1560 µg/mL (≈ 4.09 mM) | 6250 µg/mL (≈ 16.4 mM) | 200 µg/mL (≈ 0.524 mM) | 97% | 100% | 100% | 100% | 6250 µg/mL (≈ 16.4 mM) | MIC (Phytophthora infestans): 25000 µg/mL (≈ 65.5 mM); MIC (Rhizoctonia solani; [2]): 6250 µg/mL (≈ 16.4 mM) |
| OC(c1ccc(Cl)cc1)(c1cncnc1)c1ccccc1Cl (stereo not shown) [Fenarimol, reference compound] |  |  |  |  |  |  |  |  | 31% | 75% | 95% | 99% |  |  |
| OC1CCCN(c2c(-c3c(F)cc(F)cc3F)c(Cl)nc3ncnn23)C1 (stereo not shown) [Example 41, 5-chloro-7-(3-hydroxypiperidin-1-yl)-6-(2,4,6-trifluorophenyl)-[1,2,4]triazolo[1,5-a]-pyrimidine] |  |  |  |  | 6250 µg/mL (≈ 16.3 mM) | 100000 µg/mL (≈ 261 mM) | 50000 µg/mL (≈ 130 mM) | 12500 µg/mL (≈ 32.6 mM) |  |  |  |  | 25000 µg/mL (≈ 65.1 mM) |  |
| CC(C)C(Nc1c(-c2c(F)cc(F)cc2F)c(Cl)nc2ncnn12)C(F)(F)F (stereo not shown) [Example 55, 5-chloro-7-[N-2-(3-methyl-1,1,1-trifluorobutyl)-amino]-6-(2,4,6-trifluorophenyl)-[1,2,4]triazolo[1,5-a]-pyrimidine] | 390 µg/mL (≈ 0.92 mM) | 1560 µg/mL (≈ 3.68 mM) | 100000 µg/mL (≈ 236 mM) | 40 µg/mL (≈ 0.0944 mM) |  |  |  |  |  |  |  |  |  | MIC (Minimum Inhibitory Concentration) LEPTNO (Leptosphaeria nodorum; [2]): 1560 µg/mL (≈ 3.68 mM); MIC (Minimum Inhibitory Concentration) PYRNTE (Pyrenophora teres; [2]): 6250 µg/mL (≈ 14.7 mM); MIC (Minimum Inhibitory Concentration) RHISZO (Rhizoctonia solani; [2]): 12500 µg/mL (≈ 29.5 mM) |
| CCCC(Nc1c(-c2c(F)cc(F)cc2F)c(Cl)nc2ncnn12)C(C)C (stereo not shown) [Example 57, 5-chloro-7-[3-(2-methylhexyl)-amino]-6-(2,4,6-trifluorophenyl)-[1,2,4]triazolo[5-a]-pyrimidine] | 200 µg/mL (≈ 0.503 mM) | 390 µg/mL (≈ 0.98 mM) | 110000 µg/mL (≈ 276 mM) | 40 µg/mL (≈ 0.101 mM) |  |  |  |  |  |  |  |  |  | MIC (Minimum Inhibitory Concentration) LEPTNO (Leptosphaeria nodorum; [2]): 780 µg/mL (≈ 1.96 mM); MIC (Minimum Inhibitory Concentration) PYRNTE (Pyrenophora teres; [2]): 3130 µg/mL (≈ 7.87 mM); MIC (Minimum Inhibitory Concentration) RHISZO (Rhizoctonia solani; [2]): 110000 µg/mL (≈ 276 mM) |
| CC(C)CCN(C)c1c(-c2c(F)cc(F)cc2F)c(Cl)nc2ncnn12 [Example 54, 5-chloro-7-[N-(3-methylbutyl)-N-methylamino]-6-(2,4,6-trifluorophenyl)-[1,2,4]triazolo[1,5-a]pyrimidine] |  |  |  |  | 780 µg/mL (≈ 2.03 mM) | 3130 µg/mL (≈ 8.16 mM) | 12500 µg/mL (≈ 32.6 mM) | 40 µg/mL (≈ 0.104 mM) |  |  |  |  | 3130 µg/mL (≈ 8.16 mM) |  |
| Fc1cc(F)c(-c2c(Cl)nc3ncnn3c2NC(c2ccccc2)C(F)(F)F)c(F)c1 (stereo not shown) [Example 52, 5-chloro-7-[N-(1-phenyl-2,2,2-trifluoroethyl)-amino]-6-(2,4,6-trifluorophenyl)-[1,2,4]triazolo[1,5-a]pyrimidine] |  |  |  |  | 3130 µg/mL (≈ 6.84 mM) | 12500 µg/mL (≈ 27.3 mM) |  | 1560 µg/mL (≈ 3.41 mM) |  |  |  |  | 3130 µg/mL (≈ 6.84 mM) |  |
| C[Si](C)(C)CN(CC(F)(F)F)c1c(-c2c(F)cc(F)cc2F)c(Cl)nc2ncnn12 [Example 40, 5-chloro-7-[N-(2.2,2-trifluoroethyl)-N-(trimethylsiiylmethyl)-amino]-6-(2.4,6-trifiuorophenyl)-[1,2,4]triazolo[1,5-a]pyrimidine] | 780 µg/mL (≈ 1.67 mM) | 6250 µg/mL (≈ 13.4 mM) | 25000 µg/mL (≈ 53.4 mM) | 1560 µg/mL (≈ 3.33 mM) |  |  |  |  |  |  |  |  |  | MIC (Minimum Inhibitory Concentration) LEPTNO (Leptosphaeria nodorum): 110000 µg/mL (≈ 235 mM); MIC (Minimum Inhibitory Concentration) PYRNTE (Pyrenophora teres): 25000 µg/mL (≈ 53.4 mM); MIC (Minimum Inhibitory Concentration) RHISZO (Rhizoctonia solani): 110000 µg/mL (≈ 235 mM) |
| CCCC(Cn1cncn1)c1ccc(Cl)cc1Cl (stereo not shown) [Penconazole, reference compound] |  |  |  |  |  |  |  |  | 11% | 17% | 31% | 58% |  |  |
